According to US12312625B2, “Engineering strain producing cordycepin and its derivative 3′-deoxyinosine, its preparation method and application” (DALIAN UNIVERSITY, priority 2022, dated 2025):

System: Pichia pastoris GS115 strain
Assay: Cordycepin tolerance test (growth curves of yeast in YPD medium with cordycepin)
Format: cell-based
Details: 30° C., biomass measured every 2h, FIG. 5
Source text: In order to detect the tolerance of yeast strains to cordycepin, the inventor thus provides a method of detecting the tolerance of yeast strains to cordycepin. The Pichia pastoris GS115 strain is activated and inoculated into a 96-deep porous plate containing YPD medium, with the inoculation concentration at about OD600=0.4, supplemented with the cordycepin solutions under different concentrations (0.1, 1.0, 2.0, 5.0 g·L^−1). The broth without cordycepin is used as the control, and the porous plate is placed into BioScreene, cultured by shaking at constant temperature of 30° C., and the biomass of the strain is measured every 2h. Triplicates are set in each group, and an average value of the triplicate is calculated to draw a growth curve of yeast strains under the effect of different concentrations of cordycepin. […] As mentioned above, the cordycepin yield has exceeded 2.0 g/L, so the stress tolerance of the strain needs to be considered.

Nc1ncnc2c1ncn2[C@@H]1O[C@H](CO)C[C@H]1O [cordycepin]
growth of yeast strains (YPD medium containing 2-5 g/L cordycepin): severely inhibited
growth of yeast strains (YPD medium, 1 g/L cordycepin): slight impact
growth of yeast strains (YPD medium, cordycepin below 0.1 g/L): almost has no effect
